Where “and” joins values, the source holds several entries; their conditions need not be identical. Identical values can stand only once.
Columns and labels:
[1] = test system: children of the mothers who participated in the trial; settings: cited from earlier work
[2] = test system: pregnant women having a documented history of spontaneous preterm delivery; settings: cited from earlier work
[3] = Analysis of the Example 1 trial by smoking status during pregnancy; type: in vivo, human; settings: women who smoked during pregnancy; 95% CI 0.0830, 0.5297
Description: (§1) In a double-blind, placebo-controlled trial, 463 pregnant women having a documented history of spontaneous preterm delivery received weekly injections of 250 mg […] caproate (17-HPC) or an inert castor oil placebo beginning at 16 to 20weeks of gestation and continuing until delivery or 36 weeks of gestation, whichever occurred first. […] A 2:1 ratio was used for the assignment of women to the 17-HPC or placebo group, since those in the placebo group would be subjected to painful injections on a weekly basis with no possibility of direct benefit. Thus, there were 310 women in the 17-HPC group and 153 women in the placebo group. The baseline characteristics of the women in the two groups were similar in terms of the mean duration of gestation of the qualifying delivery, the mean duration of gestation at the time of randomization, race or ethnic group, marital status, body mass index (BMI), educational level, smoking status, and substance use during pregnancy. The women in the placebo group had had more previous preterm deliveries (mean of 1.6 vs. 1.4 in the 17-HPC group). 91.5% of the study participants were compliant with all of their injections, noncompliance being defined as a gap of 10 days or more between any two injections, and there was no difference in the rate of compliance between the placebo group and the 17-HPC group. Preterm delivery was defined as delivery at less than 37 completed weeks (259 days) of gestation, calculated on the basis of the date of the last menstrual period and ultrasonography results.
(§2) In the clinical trial described in Example 1, 22.6% ([…]) of subjects in the 17-HPC group and 19.6% (30/153) of subjects in the placebo group smoked during pregnancy. […] Thus, it was apparent in the data that smoking increased the risk f or preterm delivery, measured either as delivery prior to 37 weeks of gestation.

[4] = test system: women who smoked during pregnancy; test: as above; type: in vivo, human
Description: as §1, §2

CCCCCC(=O)O[C@]1(C(C)=O)CC[C@H]2[C@@H]3CCC4=CC(=O)CC[C@]4(C)[C@H]3CC[C@@]21C [17-HPC, 17alpha-hydroxyprogesterone caproate]
health status or physical examination of the children ([1]; mean age at follow up 48 months, 194 children in 17-HPC group vs 84 placebo): No significant differences
Ages and Stages Questionnaire (development in five areas) ([1]; mean age at follow up 48 months, versus placebo): no difference
safety for the fetus ([1]; weekly intramuscular injection to the mother during second and third trimesters): appears to be safe for the fetus
incidence of preterm delivery at less than 37 weeks of gestation ([2]; 250 mg weekly injection from 16-20 weeks of gestation until delivery or 36 weeks, 111/306, placebo 54.9%): 36.3%
incidence of delivery at less than 32 weeks ([2]; 250 mg weekly, 35/306, P=0.02): 11.4%
incidence of delivery at less than 35 weeks of gestation ([2]; 250 mg weekly, 63/306, placebo 30.7%, P=0.02): 20.6%
incidence of necrotizing enterocolitis ([2]; infants of treated women, 0/305, placebo 2.6%, P=0.01): 0%
incidence of intraventricular hemorrhage of any grade ([2]; infants of treated women, 4/305, placebo 5.2%): 1.3%
incidence of birth weight of less than 1500 g ([2]; infants of treated women, 26/301, placebo 13.9%, P=0.08, non-significant): 8.6%
incidence of need for supplemental oxygen ([2]; infants of treated women, 45/303, placebo 23.8%): 14.9%
incidence of birth weight of less than 2500 g ([2]; infants of treated women, 82/301, placebo 41.1%, P=0.003): 27.2%
rate of intraventricular hemorrhage of grades 3 to 4 ([2]; versus placebo group): no significant difference between groups
rates of infant death, transient tachypnea in the newborn, distress syndrome, bronchopulmonary dysplasia, need for ventilatory support, retinopathy of prematurity, and patent ductus arteriosus ([2]; versus placebo group): slightly but not significantly lower
women needed to be treated to prevent one delivery before 32 weeks of gestation ([2]; women with similar risk level): 12 women
odds ratio of preterm delivery (<37 weeks) 17-HPC vs placebo [3]: 0.21 and 0.2097
proportion of deliveries at less than 37 weeks of gestation, subjects who did not smoke during pregnancy ([4]; not smoking during pregnancy, 92/240, placebo 51.2% (63/123)): 38.3%
proportion of deliveries at less than 37 weeks of gestation, subjects who smoked during pregnancy ([4]; smoking during pregnancy, 23/70, placebo 70% (21/30)): 32.9%

— patent US20170087165A1, “METHODS FOR REDUCING THE OCCURRENCE OF PRETERM DELIVERY AND OTHER PREGNANCY-RELATED CONDITIONS” (Lumara Health IP, Ltd., priority 2009, published 2017)
